Publication doi:10.1101/2020.04.24.059154v2 (biorxiv, 2021)

Target: T1, AfLPMO16 (Aspergillus fumigatus, UniProt A0A7D5FGU2)
T1 sequence (A0A7D5FGU2 20-290 limits assumed): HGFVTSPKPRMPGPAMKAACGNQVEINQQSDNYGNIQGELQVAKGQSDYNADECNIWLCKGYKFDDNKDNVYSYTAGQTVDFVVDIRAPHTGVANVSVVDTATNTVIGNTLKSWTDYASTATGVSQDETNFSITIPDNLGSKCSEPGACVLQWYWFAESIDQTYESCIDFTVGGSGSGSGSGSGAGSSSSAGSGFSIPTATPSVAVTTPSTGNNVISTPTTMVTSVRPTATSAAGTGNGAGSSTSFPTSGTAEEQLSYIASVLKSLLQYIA
Experiment: spectrophotometric 1-coerulignone formation at […] nm, Lineweaver-Burk plot
Assay type: biochemical
Settings: 5 uM hydrogen peroxide as co-substrate, 100 mM phosphate buffer pH 6.0, 30 C

Km: 5.4 mM
SMILES: COc1cccc(OC)c1O [2,6-dimethoxyphenol]
